Laboratory results published in patent US11547663B2, “Unit aerosol doses for anticoagulation” (InCarda Therapeutics, Inc., priority 2015, dated 2023).
Where two headings read alike, the source gives them in different places.

Columns and labels:
intrinsic pathway = experiment: Activated clotting time (ACT) in dog blood after IV or IT anticoagulant; type: in vivo; conditions: for ACT LA: Left Atrium
Protocol: To assess the efficacy of anticoagulants delivered via intratracheal (IT) inhalation, four different anticoagulants were tested in a dog study. PK as well as biomarkers of blood in the Left Atrium (LA) and Coronary Sinus (CS) were monitored. These locations were chosen as these are the sites whereby clot formation occurs that leads to Myocardial Infarction or results in stroke. These drugs and doses were selected to represent a wide spectrum of anticoagulant classes. One anticoagulant was tested in one dog on each arm of this study. Activated clotting time (ACT), measures the time in seconds needed for whole blood to clot upon exposure to an activator of an intrinsic pathway by the addition of such as factor XII activators. Measurements were performed in the blood collected from Left Atrium (LA) and in the Coronary sinus (CS)—the targets for stroke prevention and Myocardial Infarction (MI), respectively.

extrinsic system = experiment: Prothrombin Time (PT) in dog blood after IV or IT anticoagulant; type: in vivo; conditions: for PTCS: Coronary Sinus; for PT LA: Left Atrium
Protocol: (§1) To assess the efficacy of anticoagulants delivered via intratracheal (IT) inhalation, four different anticoagulants were tested in a dog study.
(§2) PK as well as biomarkers of blood in the Left Atrium (LA) and Coronary Sinus (CS) were monitored. These locations were chosen as these are the sites whereby clot formation occurs that leads to Myocardial Infarction or results in stroke.
(§3) These drugs and doses were selected to represent a wide spectrum of anticoagulant classes. One anticoagulant was tested in one dog on each arm of this study.
(§4) Factor Xa inhibition; Prothrombin Time (PT): measures the integrity of the extrinsic system as well as factors common to both systems; and Activated Partial Thromboplastin Time (aPTT or PTT): measures the integrity of the intrinsic system and the common components and factor-Xa inhibition.
(§5) Measurements were performed in the blood collected from Left Atrium (LA) and in the Coronary sinus (CS)—the targets for stroke prevention and Myocardial Infarction (MI), respectively.

intrinsic system = experiment: Activated Partial Thromboplastin Time (aPTT or PTT) in dog blood after IV or IT anticoagulant; type: in vivo; conditions: for PTTCS: Coronary Sinus; for PTT LA: Left Atrium
Protocol: as §1, §2, §3, §4, §5

[1] = Dog study summary: effect of inhaled anticoagulant on tested biomarkers; type: in vivo; conditions: inhaled (IT)
Protocol: as §1, §2, §3
The standard laboratory tests commonly used to evaluate the efficacy of anticoagulants are the following:
The first test, ACT, was the key in the management of ACS. The latter three tests provided information regarding the prevention of clot formation and growth of an existing clot. The table below summarizes the measurements performed for each anticoagulant in the study.

[2] = cited from earlier work
[3] = IT Bivalirudin 2 mg/kg, 0 min (baseline)
[4] = IT Bivalirudin 8 mg/kg, 0 min (baseline)
[5] = IV Bivalirudin 2 mg/kg, 0 min (baseline)

## Bivalirudin
Intrinsic pathway; IT (inhaled)
  effect on ACT: NO effect
Intrinsic pathway; IT (inhaled), listed as bivalirudin
  effect on ACT: no prolongation
Intrinsic pathway; [3]
  ACT LA: 90 s
Intrinsic pathway; IT Bivalirudin 2 mg/kg, 1 min
  ACT LA: 95 s
Intrinsic pathway; IT Bivalirudin 2 mg/kg, 3 min
  ACT LA: 95 s
Intrinsic pathway; IT Bivalirudin 2 mg/kg, 5 min
  ACT LA: 101 s
Intrinsic pathway; IT Bivalirudin 2 mg/kg, 10 min
  ACT LA: 101 s
Intrinsic pathway; IT Bivalirudin 2 mg/kg, 15 min
  ACT LA: 95 s
Intrinsic pathway; IT Bivalirudin 2 mg/kg, 30 min
  ACT LA: 95 s
Intrinsic pathway; IT Bivalirudin 2 mg/kg, 60 min
  ACT LA: 95 s
Intrinsic pathway; [4]
  ACT LA: 78 s
Intrinsic pathway; IT Bivalirudin 8 mg/kg, 1 min
  ACT LA: 95 s
Intrinsic pathway; IT Bivalirudin 8 mg/kg, 3 min
  ACT LA: 89 s
Intrinsic pathway; IT Bivalirudin 8 mg/kg, 5 min
  ACT LA: 90 s
Intrinsic pathway; IT Bivalirudin 8 mg/kg, 10 min
  ACT LA: 89 s
Intrinsic pathway; IT Bivalirudin 8 mg/kg, 15 min
  ACT LA: 90 s
Intrinsic pathway; IT Bivalirudin 8 mg/kg, 30 min
  ACT LA: 90 s
Intrinsic pathway; IT Bivalirudin 8 mg/kg, 60 min
  ACT LA: 89 s
Intrinsic pathway; IV
  effect on ACT: prolonged
Intrinsic pathway; [5]
  ACT LA: 106 s
Intrinsic pathway; IV Bivalirudin 2 mg/kg, 1 min
  ACT LA: 242 s
Intrinsic pathway; IV Bivalirudin 2 mg/kg, 3 min
  ACT LA: 214 s
Intrinsic pathway; IV Bivalirudin 2 mg/kg, 5 min
  ACT LA: 203 s
Intrinsic pathway; IV Bivalirudin 2 mg/kg, 10 min
  ACT LA: 174 s
Intrinsic pathway; IV Bivalirudin 2 mg/kg, 15 min
  ACT LA: 168 s
Intrinsic pathway; IV Bivalirudin 2 mg/kg, 30 min
  ACT LA: 135 s
Intrinsic pathway; IV Bivalirudin 2 mg/kg, 60 min
  ACT LA: 106 s
Extrinsic system; IT (inhaled)
  effect on PT: NO effect
Extrinsic system; [3]
  PTCS: 6.75 s
  PT LA: 6.1 s
Extrinsic system; IT Bivalirudin 2 mg/kg, 3 min
  PTCS: 5.45 s
  PT LA: 5.4 s
Extrinsic system; IT Bivalirudin 2 mg/kg, 15 min
  PTCS: 9.3 s
  PT LA: 5.7 s
Extrinsic system; IT Bivalirudin 2 mg/kg, 60 min
  PTCS: 6.3 s
  PT LA: 7.2 s
Extrinsic system; IT Bivalirudin 2 mg/kg, 1 min
  PT LA: 6 s
Extrinsic system; IT Bivalirudin 2 mg/kg, 5 min
  PT LA: 5.8 s
Extrinsic system; IT Bivalirudin 2 mg/kg, 10 min
  PT LA: 6.2 s
Extrinsic system; IT Bivalirudin 2 mg/kg, 30 min
  PT LA: 5.8 s
Extrinsic system; [4]
  PTCS: 6.5 s
  PT LA: 6.4 s
Extrinsic system; IT Bivalirudin 8 mg/kg, 3 min
  PTCS: 5.5 s
  PT LA: 6.9 s
Extrinsic system; IT Bivalirudin 8 mg/kg, 15 min
  PTCS: 7 s
  PT LA: 6.7 s
Extrinsic system; IT Bivalirudin 8 mg/kg, 60 min
  PTCS: 5.5 s
  PT LA: 5.9 s
Extrinsic system; IT Bivalirudin 8 mg/kg, 1 min
  PT LA: 6.1 s
Extrinsic system; IT Bivalirudin 8 mg/kg, 5 min
  PT LA: 6.3 s
Extrinsic system; IT Bivalirudin 8 mg/kg, 10 min
  PT LA: 7 s
Extrinsic system; IT Bivalirudin 8 mg/kg, 30 min
  PT LA: 6.6 s
Extrinsic system; IV
  effect on PT: prolonged
Extrinsic system; [5]
  PTCS: 5.8 s
  PT LA: 5.8 s
Extrinsic system; IV Bivalirudin 2 mg/kg, 3 min
  PTCS: 25 s
  PT LA: 28.8 s
Extrinsic system; IV Bivalirudin 2 mg/kg, 15 min
  PTCS: 17.2 s
  PT LA: 12.1 s
Extrinsic system; IV Bivalirudin 2 mg/kg, 60 min
  PTCS: 6 s
  PT LA: 6.4 s
Extrinsic system; IV Bivalirudin 2 mg/kg, 1 min
  PT LA: 34.6 s
Extrinsic system; IV Bivalirudin 2 mg/kg, 5 min
  PT LA: 20.8 s
Extrinsic system; IV Bivalirudin 2 mg/kg, 10 min
  PT LA: 17.4 s
Extrinsic system; IV Bivalirudin 2 mg/kg, 30 min
  PT LA: 7.6 s
Intrinsic system; IT (inhaled)
  effect on aPTT: NO effect
Intrinsic system; [3]
  PTTCS: 8.4 s
  PTT LA: 8.4 s
Intrinsic system; IT Bivalirudin 2 mg/kg, 3 min
  PTTCS: 120 s
  PTT LA: 9.1 s
Intrinsic system; IT Bivalirudin 2 mg/kg, 15 min
  PTTCS: 120 s
  PTT LA: 9.4 s
Intrinsic system; IT Bivalirudin 2 mg/kg, 60 min
  PTTCS: 10.7 s
  PTT LA: 11.9 s
Intrinsic system; IT Bivalirudin 2 mg/kg, 1 min
  PTT LA: 8.3 s
Intrinsic system; IT Bivalirudin 2 mg/kg, 5 min
  PTT LA: 8.8 s
Intrinsic system; IT Bivalirudin 2 mg/kg, 10 min
  PTT LA: 11.5 s
Intrinsic system; IT Bivalirudin 2 mg/kg, 30 min
  PTT LA: 8.2 s
Intrinsic system; [4]
  PTTCS: 12.5 s
  PTT LA: 10.3 s
Intrinsic system; IT Bivalirudin 8 mg/kg, 3 min
  PTTCS: 8.1 s
  PTT LA: 11.9 s
Intrinsic system; IT Bivalirudin 8 mg/kg, 15 min
  PTTCS: 120 s
  PTT LA: 9.6 s
Intrinsic system; IT Bivalirudin 8 mg/kg, 60 min
  PTTCS: 21.3 s
  PTT LA: 13 s
Intrinsic system; IT Bivalirudin 8 mg/kg, 1 min
  PTT LA: 8.4 s
Intrinsic system; IT Bivalirudin 8 mg/kg, 5 min
  PTT LA: 11.3 s
Intrinsic system; IT Bivalirudin 8 mg/kg, 10 min
  PTT LA: 9.5 s
Intrinsic system; IT Bivalirudin 8 mg/kg, 30 min
  PTT LA: 9.9 s
Intrinsic system; IV
  effect on aPTT: prolonged
Intrinsic system; [5]
  PTTCS: 10.6 s
  PTT LA: 9.7 s
Intrinsic system; IV Bivalirudin 2 mg/kg, 3 min
  PTTCS: 35.1 s
  PTT LA: 36 s
Intrinsic system; IV Bivalirudin 2 mg/kg, 15 min
  PTTCS: 120 s
  PTT LA: 19.1 s
Intrinsic system; IV Bivalirudin 2 mg/kg, 60 min
  PTTCS: 120 s
  PTT LA: 11 s
Intrinsic system; IV Bivalirudin 2 mg/kg, 1 min
  PTT LA: 42.4 s
Intrinsic system; IV Bivalirudin 2 mg/kg, 5 min
  PTT LA: 26.3 s
Intrinsic system; IV Bivalirudin 2 mg/kg, 10 min
  PTT LA: 23.8 s
Intrinsic system; IV Bivalirudin 2 mg/kg, 30 min
  PTT LA: 15.7 s
[1]
  effect of inhaled drug on tested biomarkers (summary): showed NO
[2]; as stated in b199
  half-life: 1 to 2 h
[2]; as stated in b211
  half-life: 2 to 4 h
